The record followed here is patent US20100316585A1, “Use of Magnesium Stearate Dihydrate for Lubrication of Solid Industrial or Consumer Products” (priority 2008, published 2010).

Series [1] can be described thus: Percent water (free and bound) of neat MgSt hydrates. To be noted: neat MgSt hydrate. The series is classed as physicochemical. As for the experimental part: Thermal gravimetric analysis (Q50 TGA, TA Instruments) was carried out from 25 to 190° C. at a heating rate of 5° C./min. Data acquisition and analysis were conducted using TA Instruments software. FIG. 4 presents the TGA of MgSt-M and MgSt-D.

The nature of series [2]: Particle-size distribution by laser diffraction. It counts as physicochemical. To be noted: neat MgSt hydrate. As for the experimental part:
Particle-size distributions were determined using a laser diffraction system (series 2600, Malvern Instruments Ltd., Malvern, UK) equipped with a 63-mm lens (size range of 1.2-118 μm) and a stirred cell.

Regarding magnesium stearate dihydrate [MgSt-D], in series [1], the Dihydrate water was 5.6%, the Monohydrate water came to 0% and the percent bound moisture came to 5.6%. In addition, the Free water entry in series [1] (dihydrate) is “little or no free water”. Also, in series [1] (listed as MqSt-D, dihydrate), the Free water is 0%. Further, in series [2], the “Particle size (nominal mean particle size)” value is 14.3 μm.

In series [1], “magnesium stearate [MgSt-M, reference compound]” displayed a Dihydrate water of 0%, a Free water of 0.6%, a Monohydrate water of 2.8% and a percent bound moisture of 2.8%. Further, the “Particle size (nominal mean particle size)” value in series [2] was determined as 10.6 μm.
